Laboratory results as given in patent publication US3974140A, “Ureidoacetamido-penicillins” (Bayer Aktiengesellschaft, priority 1970, dated 1976).

Columns and labels:
Experiment in all cases: MIC, liquid medium test tube series dilution test
Staph. aureus 1777 E = type: cell-based, Staphylococcus aureus; settings: 24 hours, 37°C
Outline: (§1)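 Liquid-medium tube serial dilution in complete nutrient medium, read after 24 h incubation at 37°C. MIC is the lowest concentration giving a non-turbid tube, expressed in units/ml.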

Staph. aureus 133 = type: cell-based, Staphylococcus aureus; settings: Staph. aureus 133, 24 hours, 37°C
Outline: as §1

Proteus vulg. 3400 = type: cell-based, Proteus vulgaris; settings: Proteus vulg. 3400, 24 hours, 37°C
Outline: as §1

Proteus vulg. 1017 = type: cell-based, Proteus vulgaris; settings: Proteus vulg. 1017, 24 hours, 37°C
Outline: as §1

Psdm. aerug. Bonn = type: cell-based, Pseudomonas aerug.; settings: 24 hours, 37°C
Outline: as §1

Psdm. aerug. Walter = type: cell-based, Pseudomonas aerug.; settings: 24 hours, 37°C
Outline: as §1

Klebsiella 63 = type: cell-based; settings: Klebsiella 63, 24 hours, 37°C
Outline: as §1

Klebsiella K 10 = type: cell-based; settings: Klebsiella K 10, 24 hours, 37°C
Outline: as §1

E. coli 183/58 = type: cell-based; settings: E. coli 183/58, 24 hours, 37°C
Outline: as §1

E. coli 14 = type: cell-based; settings: E. coli 14, 24 hours, 37°C
Outline: as §1

E. coli C 165 = type: cell-based; settings: E. coli C 165, 24 hours, 37°C
Outline: as §1

[1] = system: Streptoc. faec. ATCC 9790; type: cell-based; settings: Strep. faec. (Enterococcus) ATCC 9790, 24 hours, 37°C
Outline: as §1

E. coli A 261 = type: cell-based; settings: E. coli A 261, 24 hours, 37°C
Outline: as §1

SMILES | MIC (Staph. aureus 1777 E) | MIC (Staph. aureus 133) | MIC (Proteus vulg. 3400) | MIC (Proteus vulg. 1017) | MIC (Psdm. aerug. Bonn) | MIC (Psdm. aerug. Walter) | MIC (Klebsiella 63) [units/ml] | MIC (Klebsiella K 10) [units/ml] | MIC (E. coli 183/58) | MIC (E. coli 14) | MIC (E. coli C 165) | MIC [1] | MIC (E. coli A 261) [units/ml]
COC(=O)N(C)C(=O)N[C@@H](C(=O)N[C@@H]1C(=O)N2[C@@H]1SC(C)(C)[C@@H]2C(=O)O)c1c(Cl)cccc1Cl [Example 7, Sodium D(-)-α-(3-methoxycarbonyl-3-methyl-ureido)-2,6-dichlorobenzylpenicillin] | 100-500 units/ml | 0.8-4 units/ml | 100-500 units/ml | ~ 500 units/ml | 100-500 units/ml | > 500 units/ml | > 500 | > 500 | 100-500 units/ml | 100-500 units/ml | 100-500 units/ml | 100-500 units/ml | > 500
Cc1ccc(C(NC(=O)N2CCNC2=O)C(=O)N[C@@H]2C(=O)N3[C@@H]2SC(C)(C)[C@@H]3C(=O)O)cc1 (stereo partly drawn) [Example 45, Sodium α-[(imidazolidin-2-on-1-yl)-carbonylamino]-p-methylbenzylpenicillin] | 400 units/ml | < 0,78 units/ml | 100 units/ml | 100 units/ml | 25 units/ml | 12,5 units/ml | 100 | 100 | 6,25 units/ml | 6,25 units/ml | 25 units/ml | 50 units/ml | > 400
CC1(C)S[C@@H]2[C@H](NC(=O)[C@H](NC(=O)N3CCNC3=O)c3ccccc3)C(=O)N2[C@H]1C(=O)O [Example 51, Sodium D(-)-α-[(imidazolidin-2-on-1-yl)-carbonylamino]-benzylpenicillin] | 400 units/ml | < 0,78 units/ml | 25 units/ml | 25 units/ml | 12,5 units/ml | 12,5 units/ml | 50 | 100 | 12,5 units/ml | 3,12 units/ml | 12,5 units/ml | 25 units/ml | 400
COC(=O)N(C)C(=O)N[C@H](C(=O)N[C@@H]1C(=O)N2[C@@H]1SC(C)(C)[C@@H]2C(=O)O)c1c(Cl)cccc1Cl [Example 8, Sodium L(+)-α-(3-methoxycarbonyl-3-methyl-ureido)-2,6-dichlorobenzylpenicillin] | 100-500 units/ml | 4-20 units/ml | > 500 units/ml | > 500 units/ml | > 500 units/ml | > 500 units/ml | > 500 | > 500 | > 500 units/ml | > 500 units/ml | > 500 units/ml | > 500 units/ml | > 500
CCOC(=O)N(C)C(=O)N[C@@H](C(=O)N[C@@H]1C(=O)N2[C@@H]1SC(C)(C)[C@@H]2C(=O)O)c1ccccc1 [Example 61, Sodium D(-)-α-(3-ethoxycarbonyl-3-methyl-ureido)-benzylpenicillin] | 200 units/ml | < 0.78 units/ml | 25 units/ml | 25 units/ml | 12.5 units/ml | 25 units/ml | 50 | 100 | 6.25 units/ml | 3.12 units/ml | 6.25 units/ml | 50 units/ml | > 400

The next lines start with the values.

MIC (Staph. aureus 1777 E) | MIC (Staph. aureus 133) | MIC (Proteus vulg. 3400) | MIC (Proteus vulg. 1017) | MIC (Psdm. aerug. Bonn) | MIC (Psdm. aerug. Walter) | MIC (Klebsiella 63) [units/ml] | MIC (Klebsiella K 10) [units/ml] | MIC (E. coli 183/58) | MIC (E. coli 14) | MIC (E. coli C 165) | MIC [1] | MIC (E. coli A 261) [units/ml] | SMILES
200 units/ml | 1.6 units/ml | > 400 units/ml | > 400 units/ml | > 400 units/ml | > 400 units/ml | > 400 | 400 | 400 units/ml | 25 units/ml | 200 units/ml | 100 units/ml | > 400 | Cc1ccc(C(NC(=O)N(C)C(=O)N(C)C)C(=O)N[C@@H]2C(=O)N3[C@@H]2SC(C)(C)[C@@H]3C(=O)O)cc1 (stereo partly drawn) [Example 119, Sodium R,S-α-(3-dimethylaminocarbonyl-3-methyl-ureido)-4-methylbenzylpenicillin]
400 units/ml | 1.6 units/ml | 400 units/ml | 100 units/ml | 200 units/ml | 400 units/ml | 100 | 50 | 200 units/ml | 12.5 units/ml | 50 units/ml | 100 units/ml | > 400 | CC(=O)N(C)C(=O)NC(C(=O)N[C@@H]1C(=O)N2[C@@H]1SC(C)(C)[C@@H]2C(=O)O)c1cccs1 (stereo partly drawn) [Example 122, Sodium D,L-α-(3-acetyl-3-methyl-ureido)-α-thienyl(2)-methylpenicillin]
25 units/ml | < 0.8 units/ml | 100 units/ml | 50 units/ml | 50 units/ml | 100 units/ml | 100 | 50 | 12.5 units/ml | 3.12 units/ml | 25 units/ml | 200 units/ml | > 400 | CN(C(=O)N[C@@H](C(=O)N[C@@H]1C(=O)N2[C@@H]1SC(C)(C)[C@@H]2C(=O)O)c1ccccc1)C(=O)N1CCCCC1 [Example 123, Sodium D(-)-α-(3-[1-piperidyl]-carbonyl-3-methyl-ureido)-benzylpenicillin]
12.5 units/ml | < 0.78 units/ml | 6.25 units/ml | 1.56 units/ml | 6.25 units/ml | 12.5 units/ml | 6.25 | 6.25 | < 0.78 units/ml | 0.78 units/ml | 1.56 units/ml | 50 units/ml | 50 | CN(C(=O)N[C@@H](C(=O)N[C@@H]1C(=O)N2[C@@H]1SC(C)(C)[C@@H]2C(=O)O)c1ccccc1)C(=O)c1ccccc1Br [Example 128, Sodium D(-)-α-(3-[2-bromobenzoyl]-3-methyl-ureido)-benzyl penicillin]
100 units/ml | 1.6 units/ml | 200 units/ml | 100 units/ml | 200 units/ml | 200 units/ml | 200 | 100 | 200 units/ml | 12.5 units/ml | 50 units/ml | 50 units/ml | > 400 | CC(=O)N(C)C(=O)NC(C(=O)N[C@@H]1C(=O)N2[C@@H]1SC(C)(C)[C@@H]2C(=O)O)c1ccc(C)cc1 (stereo partly drawn) [Example 118, Sodium α-(3-acetyl-3-methyl-ureido)-4-methylbenzylpenicillin]
25 units/ml | < 0.78 units/ml | 50 units/ml | 50 units/ml | 50 units/ml | 100 units/ml | 50 | 50 | 25 units/ml | 3.12 units/ml | 12.5 units/ml | 200 units/ml | > 400 | CN(C(=O)N[C@@H](C(=O)N[C@@H]1C(=O)N2[C@@H]1SC(C)(C)[C@@H]2C(=O)O)c1ccccc1)C(=O)N1CCCC1 [Example 124, Sodium D(-)-α-(3-[1-pyrrolidyl]-carbonyl-3-methyl-ureido)-benzylpenicillin]
100 units/ml | 1.56 units/ml | 100 units/ml | 100 units/ml | 100 units/ml | 200 units/ml | 200 | 100 | 50 units/ml | 12.5 units/ml | 50 units/ml | 200 units/ml | > 400 | CCN(CC)C(=O)N(C)C(=O)N[C@@H](C(=O)N[C@@H]1C(=O)N2[C@@H]1SC(C)(C)[C@@H]2C(=O)O)c1ccccc1 [Example 126, Sodium D(-)-α-(3-diethylaminocarbonyl-3-methyl-ureido)-benzylpenicillin]
